This note sets out measurements from PubChem BioAssay AID342 (DTP/NCI, 2004).

The test system of the assay is Swiss mice, Sarcoma 180 sc, mean tumor weight T/C. The experiment in a line: NCI In Vivo Anticancer Drug Screen. Data for tumor model Sarcoma 180 (subcutaneous) in Swiss mice. The note with it: endpoint: mean tumor weight, higher = larger tumour. A digest of the protocol:
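Tumor-bearing mice, transplantable tumor; readout survival or tumor size; result = T/C, treated vs vehicle control.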

The mark [1] stands for this setting: dose: 100.0 mg/kg/injection, schedule: Q01DX007 (ip), vehicle: carboxymethylcellulose (CMC).

“And” between values parts separate entries of the source, which are not always exact repeats. Identical values can stand only once.

As to `S=c1nc[nH]c2nc[nH]c12`, the T/C reads like this: (dose: 3.25 mg/kg/injection, schedule: Q#A X014 (ip), vehicle: carboxymethylcellulose (CMC)) 62 % of control; (dose: 3.62 mg/kg/injection, schedule: Q#A X014 (ip), vehicle: carboxymethylcellulose (CMC)) 83 % of control; (dose: 6.5 mg/kg/injection, schedule: Q#A X014 (ip), vehicle: carboxymethylcellulose (CMC)) 61 % of control; (dose: 7.25 mg/kg/injection, schedule: Q#A X014 (ip), vehicle: carboxymethylcellulose (CMC)) 56 % of control; (dose: 7.5 mg/kg/injection, schedule: Q01DX007 (ip), vehicle: other) 102 % of control; (dose: 10.4 mg/kg/injection, schedule: Q01DX007 (ip), vehicle: carboxymethylcellulose (CMC)) 51 % of control. Also, the T/C was 66 % of control (dose: 13.0 mg/kg/injection, schedule: Q01DX007 (ip), vehicle: carboxymethylcellulose (CMC)); 28 % of control (dose: 13.0 mg/kg/injection, schedule: Q#A X014 (ip), vehicle: carboxymethylcellulose (CMC)); 73 % of control and 83 % of control (dose: 14.5 mg/kg/injection, schedule: Q01DX007 (ip), vehicle: carboxymethylcellulose (CMC)); 48 % of control (dose: 14.5 mg/kg/injection, schedule: Q#A X014 (ip), vehicle: carboxymethylcellulose (CMC)); 101 % of control (dose: 15.0 mg/kg/injection, schedule: Q01DX007 (ip), vehicle: other); 60 % of control (dose: 15.0 mg/kg/injection, schedule: Q#A X014 (ip), vehicle: methylcellulose (MC)). Also, the T/C was 51 % of control (dose: 17.3 mg/kg/injection, schedule: Q01DX007 (ip), vehicle: carboxymethylcellulose (CMC)); 72 % of control (dose: 19.0 mg/kg/injection, schedule: Q01DX007 (ip), vehicle: carboxymethylcellulose (CMC)); 49 % of control (dose: 23.2 mg/kg/injection, schedule: Q01DX007 (ip), vehicle: carboxymethylcellulose (CMC)); 55 % of control (dose: 25.0 mg/kg/injection, schedule: Q#A X014 (ip), vehicle: methylcellulose (MC)); 36 % of control (dose: 26.0 mg/kg/injection, schedule: Q01DX007 (ip), vehicle: carboxymethylcellulose (CMC)); 32 % of control (dose: 26.0 mg/kg/injection, schedule: Q#A X014 (ip), vehicle: carboxymethylcellulose (CMC)). The T/C was 20 % of control (dose: 29.0 mg/kg/injection, schedule: Q#A X014 (ip), vehicle: carboxymethylcellulose (CMC)); 78 % of control (dose: 30.0 mg/kg/injection, schedule: Q01DX007 (ip), vehicle: other); 34 % of control (dose: 37.5 mg/kg/injection, schedule: Q#A X014 (ip), vehicle: methylcellulose (MC)); 36 % of control (dose: 38.6 mg/kg/injection, schedule: Q01DX007 (ip), vehicle: carboxymethylcellulose (CMC)); 27 % of control and 47 % of control (dose: 43.5 mg/kg/injection, schedule: Q01DX007 (ip), vehicle: carboxymethylcellulose (CMC)); 49 % of control (dose: 44.0 mg/kg/injection, schedule: Q01DX007 (ip), vehicle: carboxymethylcellulose (CMC)). The T/C runs as follows: (dose: 50.0 mg/kg/injection, schedule: Q#A X014 (ip), vehicle: methylcellulose (MC)) 14 % of control; (dose: 58.0 mg/kg/injection, schedule: Q01DX007 (ip), vehicle: carboxymethylcellulose (CMC)) 14 % of control and 21 % of control and 28 % of control; (dose: 60.0 mg/kg/injection, schedule: Q01DX007 (ip), vehicle: other) 33 % of control and 47 % of control; (dose: 66.0 mg/kg/injection, schedule: Q01DX007 (ip), vehicle: carboxymethylcellulose (CMC)) 34 % of control; under setting [1], 24 % of control.
`CC(=O)OCC(=O)[C@@]1(O)CC[C@H]2[C@@H]3CCC4=CC(=O)C=C[C@]4(C)[C@H]3[C@@H](O)C[C@@]21C`: the T/C was 73 % of control (dose: 13.3 mg/kg/injection, schedule: Q01DX007 (sc), vehicle: steriod suspending solution); 62 % of control (dose: 20.0 mg/kg/injection, schedule: Q01DX007 (sc), vehicle: steriod suspending solution); 51 % of control (dose: 30.0 mg/kg/injection, schedule: Q01DX007 (sc), vehicle: steriod suspending solution); 23 % of control (dose: 45.0 mg/kg/injection, schedule: Q01DX007 (sc), vehicle: steriod suspending solution).
Consider `CCOC(=O)c1c(C#N)c(Cl)nc(C)c1[N+](=O)[O-]`, for which the T/C by setting is: (dose: 3.0 mg/kg/injection, schedule: Q#A X014 (ip), vehicle: carboxymethylcellulose (CMC)) 64 % of control; (dose: 6.0 mg/kg/injection, schedule: Q#A X014 (ip), vehicle: carboxymethylcellulose (CMC)) 70 % of control.
As for `O=C1Nc2ccccc2/C1=C/c1cccnc1`, the T/C was 100 % of control (dose: 62.5 mg/kg/injection, schedule: Q01DX007 (ip), vehicle: carboxymethylcellulose (CMC)); 79 % of control (dose: 125.0 mg/kg/injection, schedule: Q01DX007 (ip), vehicle: carboxymethylcellulose (CMC)); 43 % of control (dose: 250.0 mg/kg/injection, schedule: Q01DX007 (ip), vehicle: carboxymethylcellulose (CMC)).
For `O=C(O)CC[S-].[Ag+]`, the T/C by setting is: (dose: 187.5 mg/kg/injection, schedule: Q#A X014 (ip), vehicle: methylcellulose (MC)) 59 % of control and 68 % of control; (dose: 281.0 mg/kg/injection, schedule: Q#A X014 (ip), vehicle: methylcellulose (MC)) 69 % of control.
As for `COc1cc2c3c(c4cc(OC)c(OC)cc4c2cc1OC)CN1CCC[C@H]1C3`, the T/C runs as follows: (dose: 10.0 mg/kg/injection, schedule: Q01DX007 (ip), vehicle: water) 70 % of control; (dose: 12.0 mg/kg/injection, schedule: Q01DX007 (ip), vehicle: water) 81 % of control; (dose: 18.0 mg/kg/injection, schedule: Q01DX007 (ip), vehicle: water) 42 % of control.
As to `C[C@]12CC[C@H](O)C[C@H]1CC[C@@H]1[C@@H]2CC[C@]2(C)[C@@H](C3=CC(=O)OC3)[C@@H](O)C[C@]12O`, the T/C is 78 % of control (dose: 3.0 mg/kg/injection, schedule: Q01DX007 (sc), vehicle: steriod suspending solution); 64 % of control (dose: 10.0 mg/kg/injection, schedule: Q01DX007 (sc), vehicle: steriod suspending solution); 50 % of control (dose: 25.0 mg/kg/injection, schedule: Q01DX007 (sc), vehicle: steriod suspending solution); 70 % of control (dose: 50.0 mg/kg/injection, schedule: Q01DX007 (sc), vehicle: steriod suspending solution).
In the case of `Cn1c(=O)c2[nH]cnc2n(C)c1=O`, the T/C reads like this: (dose: 20.43 mg/kg/injection, schedule: Q01DX007 (ip), vehicle: carboxymethylcellulose (CMC)) 75 % of control; (dose: 40.87 mg/kg/injection, schedule: Q01DX007 (ip), vehicle: carboxymethylcellulose (CMC)) 103 % of control; (dose: 81.75 mg/kg/injection, schedule: Q01DX007 (ip), vehicle: carboxymethylcellulose (CMC)) 70 % of control; (dose: 163.5 mg/kg/injection, schedule: Q01DX007 (ip), vehicle: carboxymethylcellulose (CMC)) 113 % of control.
Turning to `O=C(O)c1ccccc1C(=O)OCc1ccccc1`, the T/C (dose: 500.0 mg/kg/injection, schedule: Q01DX007 (ip), vehicle: carboxymethylcellulose (CMC)) is 72 % of control.
As for `CS(=O)(=O)OCCC(=O)N1CCN(C(=O)CCOS(C)(=O)=O)CC1`, the T/C by setting is: (dose: 12.5 mg/kg/injection, schedule: Q01DX007 (ip), vehicle: saline) 92 % of control; (dose: 25.0 mg/kg/injection, schedule: Q01DX007 (ip), vehicle: saline) 76 % of control and 100 % of control; (dose: 67.0 mg/kg/injection, schedule: Q#A X014 (ip), vehicle: methylcellulose (MC)) 8 % of control and 23 % of control; (dose: 150.0 mg/kg/injection, schedule: Q#A X014 (ip), vehicle: methylcellulose (MC)) 7 % of control.
On to `OCC1OC(n2cnc3c(Cl)ncnc32)C(O)C1O` (centres undefined), for which the T/C is, setting by setting: (dose: 5.9 mg/kg/injection, schedule: Q01DX007 (ip), vehicle: carboxymethylcellulose (CMC)) 102 % of control; (dose: 11.75 mg/kg/injection, schedule: Q01DX007 (ip), vehicle: carboxymethylcellulose (CMC)) 104 % of control; (dose: 23.5 mg/kg/injection, schedule: Q01DX007 (ip), vehicle: carboxymethylcellulose (CMC)) 105 % of control; (dose: 47.0 mg/kg/injection, schedule: Q01DX007 (ip), vehicle: carboxymethylcellulose (CMC)) 113 % of control; (dose: 50.0 mg/kg/injection, schedule: Q01DX007 (ip), vehicle: carboxymethylcellulose (CMC)) 75 % of control; (dose: 94.0 mg/kg/injection, schedule: Q01DX007 (ip), vehicle: carboxymethylcellulose (CMC)) 38 % of control. Besides, the T/C is 110 % of control under setting [1]; 29 % of control (dose: 187.5 mg/kg/injection, schedule: Q01DX007 (ip), vehicle: carboxymethylcellulose (CMC)); 102 % of control (dose: 200.0 mg/kg/injection, schedule: Q01DX007 (ip), vehicle: carboxymethylcellulose (CMC)); 36 % of control (dose: 375.0 mg/kg/injection, schedule: Q01DX007 (ip), vehicle: carboxymethylcellulose (CMC)); 70 % of control (dose: 400.0 mg/kg/injection, schedule: Q01DX007 (ip), vehicle: carboxymethylcellulose (CMC)); 36 % of control (dose: 750.0 mg/kg/injection, schedule: Q01DX007 (ip), vehicle: carboxymethylcellulose (CMC)). In addition, the T/C (dose: 800.0 mg/kg/injection, schedule: Q01DX007 (ip), vehicle: carboxymethylcellulose (CMC)) is 122 % of control.

The T/C is the ratio of treated to control.
